Reference: US5783434A, “Cathepsin and methods and compositions for inhibition thereof” (priority 1995, dated 1998)
Entries after “also recorded” stand apart in the source; their conditions may differ. Where a SMILES comes first, the peptide text is derived from it. [ ]: non-standard residue; d: D form. The star is where a group is joined. Cbz = O=C(OCc1ccccc1)*

What was measured:
Type in all cases: biochemical
Cathepsin Y [1] = target: T1, Cathepsin Y (Homo sapiens, UniProt Q9UBR2); experiment: Inhibition of Cathepsin Y carboxypeptidase activity (o-phthalaldehyde fluorescence, acetylated EGYYGNYGV substrate); conditions: pH 4.5
T1 construct: source of the purified preparation not in excerpts; cDNA from human HS683 cells, expressed in 293 cells
T1 sequence (Q9UBR2 62-303): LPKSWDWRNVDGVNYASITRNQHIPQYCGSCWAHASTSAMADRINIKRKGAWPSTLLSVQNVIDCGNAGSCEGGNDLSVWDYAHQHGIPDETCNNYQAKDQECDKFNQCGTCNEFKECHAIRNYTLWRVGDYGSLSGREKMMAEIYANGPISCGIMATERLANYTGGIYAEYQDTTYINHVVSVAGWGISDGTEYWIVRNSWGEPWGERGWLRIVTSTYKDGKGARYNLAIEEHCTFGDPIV
Experimental: (§1) This is accomplished by reacting with the reagent o-phthalaldehyde in an alkaline solution in the presence of 2-mercaptoethanol (Simons, et al., JACS, 98:7098-7099, (1976)).
(§2) A standard curve was constructed by incubating varying concentrations of valine (0-20 μM) in 0.25M sodium borate, pH 10, containing 0.05% 2-mercaptoethanol and 60 μg/mL o-phthalaldehyde, in individual wells of a 96 well microtiter plate. The resulting fluorescence is read in a plate reading Cytofluor (ex 340, em 460 nm). There is a linear increase in the signal proportional to the amount of free valine present (FIG. 7).
(§3) In order to determine the pH optimum of the enzyme, reaction mixtures were set up with enzyme and substrate (0.2 mg/mL) in a total reaction volume of 0.1 mL) in individual wells of 96-well microtiter plates, in 20 mM sodium acetate buffers at different pHs, with 0.1% 2-mercaptoethanol present. Control wells were set identically except for the […] of enzyme. At various time-points after incubation at room temperature, the reactions were quenched by the addition of an equal volume of 0.45M sodium borate, pH 10, with 0.25 mg/mL o-phthalaldehyde, and the fluorescence measured. In the absence of added enzyme, no measurable fluorescence is generated above background, even with extended incubations. In the presence of enzyme, there is a time-dependent increase in fluorescence.
Using this assay at pH 4.5, the ability of a number of compounds to inhibit the activity of Cathepsin Y was tested, by adding the desired concentration of the inhibitor in the incubation mixture along with enzyme and substrate, and measuring the decrease in fluorescence (if any) relative to enzyme control.

Cathepsin Y [2] = target: T1, Cathepsin Y; experiment: Cleavage of synthetic oligopeptides by purified Cathepsin Y (RP-HPLC, amino-acid analysis); conditions: for cleavage product(s) of parent oligopeptide with Cathepsin Y: 50 μg/mL peptide, pH 4.5 or 5.5, 1 hour, 37° C
Experimental: In an effort to identify whether the enzyme has other proteolytic activity, a number of randomly selected synthetic oligopeptides were incubated with purified Cathepsin Y at pH 5.5 or 4.5. Specifically, purified Cathepsin Y was incubated with the selected synthetic oligopeptides (50 μg/mL) at either pH 4.5 or pH 5.5, for 1 hour at 37° C. Samples were quenched by the addition of trifluoroacetic acid to 1% final concentration, then analyzed by reverse phase HPLC on a Vydac C18 column, using a gradient of increasing acetonitrile in 0.1% trifluoroacetic acid. Individual peaks (parent and new product(s)) were collected, then analyzed by acid hydrolysis followed by amino-acid analysis.

[3] = Activity of Cathepsin Y on synthetic substrates used for assaying Cathepsin B, L or S
APP = experiment: Proteolytic activity of purified Cathepsin Y on APP preparations; conditions: purified recombinant APP constructs and membrane-bound full-length APP
[4] = pH optimum of Cathepsin Y carboxypeptidase activity; conditions: 20 mM sodium acetate buffers, room temperature
Experimental: as §1, §2, §3

[5] = synthetic oligopeptides, pH 4.5 or 5.5

Row | Molecule | inhibition of Cathepsin Y activity (Cathepsin Y [1]) | cleavage product(s) of parent oligopeptide with Cathepsin Y (Cathepsin Y [2]) | also measured
1 | O=C[C@H](Cc1ccccc1)NC(=O)C(c1ccccc1)c1ccccc1 [Example 3] | indicated inhibition of Cathepsin Y activity | – | –
2 | O=C[C@H](Cc1ccccc1)NC(=O)CCCCc1ccccc1 [Example 4] | indicated inhibition of Cathepsin Y activity | – | –
3 | O=C[C@H](Cc1ccccc1)NC(=O)C(=Cc1ccccc1)c1ccccc1 [Example 7] | indicated inhibition of Cathepsin Y activity | – | –
4 | CC(C)[C@H](NC(=O)OCc1ccccc1)C(=O)N[C@H](C=O)Cc1ccccc1 [Example 15] (Cbz-Val-Phe-aldehyde) | indicated inhibition of Cathepsin Y activity | – | –
5 | CC(C)[C@@H](NC(=O)OCc1ccccc1)C(=O)N[C@H](C=O)Cc1ccccc1 [Example 24] (Cbz-[dV]-Phe-aldehyde) | indicated inhibition of Cathepsin Y activity | – | –
6 | O=C[C@H](Cc1ccc(OCc2ccccc2)cc1)NC(=O)C(c1ccccc1)c1ccccc1 [Example 45] | indicated inhibition of Cathepsin Y activity | – | –
7 | CSCC[C@@H](C=O)NC(=O)[C@@H](NC(=O)OCc1ccccc1)C(C)C [Example 47] (Cbz-Val-Met-aldehyde) | indicated inhibition of Cathepsin Y activity | – | –
8 | O=C[C@H](Cc1ccccc1)NC(=O)Cc1ccccc1 [Example 59] | indicated inhibition of Cathepsin Y activity | – | –
9 | O=C[C@H](Cc1ccccc1)NC(=O)C1c2ccccc2Oc2ccccc21 [Example 64] | indicated inhibition of Cathepsin Y activity | – | –
10 | O=C[C@H](Cc1ccccc1)NC(=O)N(c1ccccc1)c1ccccc1 [Example 75] | indicated inhibition of Cathepsin Y activity | – | –
11 | Cathepsin Y: novel carboxypeptidase having a molecular weight of approximately 31 kD and the amino acid sequence set forth in SEQ ID No. 3 | – | – | endopeptidase or aminopeptidase activity (Cathepsin Y [2]; [5]): No evidence of any endopeptidase or aminopeptidase activity; predominant proteolytic activity (Cathepsin Y [2]; [5]): carboxypeptidase activity; activity with known synthetic substrates for Cathepsin B, L or S [3]: No significant activity; effect on various APP preparations (APP): without effect; pH optimum for carboxypeptidase activity [4]: about 4.5
12 | EGYYGNYGV | – | EGYYGNYGV | –
13 | EGYYGNYGVYA | – | EGYYGNYGVY; also recorded: EGYYGNYGV | –
14 | FFDEPNPGVTIY | – | FFDEPNPGVT | –
15 | LFYDQSPTATI | – | LFYDQSPTAT; also recorded: LFYDQSPTA; also recorded: LFYDQSPT | –
16 | YKRDMVGGVVIA | – | YKRDMVGGVVI; also recorded: YKRDMVGGVV | –
